Assay in all cases: NCI-60 cell line screen, 48 h
In experiment [1] the test system is 786-0 renal.
Experiment [2] concerns HT29 colon.
Experiment [3] has as its system IGROV1 ovarian.
The subject of experiment [4] is LOX IMVI melanoma.
In experiment [5] the test system is M14 melanoma.
The test system of experiment [6] is MDA-MB-435.
The subject of experiment [7] is MOLT-4 leukemia.
The test system of experiment [8] is NCI-H460 lung.
For experiment [9], the system named is NCI-H522 lung.
Experiment [10] concerns OVCAR-8 ovarian.

Several values for one entry are separate records, joined by “and”; a condition that tells them apart may be missing. Identical values can stand only once.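 Results reflect a 48-hour exposure of cells in 96-well plates to compound at five concentrations. GI50: concentration for 50% inhibition of growth. TGI marks complete inhibition of growth.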

Take `Cc1cc(Nc2ncnc3ccc(NC4=NC(C)(C)CO4)cc23)ccc1Oc1ccn2ncnc2c1`: the GI50 in experiment [1] is 20.1 µM and > 10 µM; in [2] it was 14.4 µM and > 10 µM; in [3], 12.5 µM and > 10 µM; in experiment [4], 13.4 µM and > 10 µM; in experiment [5], 14.6 µM and > 10 µM; in experiment [6] it was 16.4 µM and > 10 µM. Further, the GI50 in experiment [7] was 14.6 µM and > 10 µM; in experiment [8], 17.9 µM and > 10 µM; in experiment [9], 2.44 µM and > 10 µM; in [10], 8.75 µM and > 10 µM. The TGI in [1] was more than 81.5 µM; in experiment [2] it was 38.7 µM and > 10 µM; in [3], more than 100 µM; in [4] it was 31.3 µM and > 10 µM; in experiment [5], 33.1 µM and > 10 µM; in experiment [6], 36.9 µM and > 10 µM. Besides, the TGI in [7] was 42.2 µM and > 10 µM; in [8] it was 39.6 µM and > 10 µM; in [9] it was 21.1 µM and > 10 µM; in [10], 55.1 µM and > 10 µM.

Values taken from PubChem BioAssay (NCI).
